Laboratory results published in paper PMC9271885 (eBioMedicine, 2022).
Values joined by “and” are separate entries in the source; they are usually repeats but may differ in a detail not shown here. Identical values can stand only once.

Legend:
SARS-CoV-2 = experiment: Hamster model of SARS-CoV-2 infection, oral NTZ treatment (lung infectious titers, lung viral RNA yields, plasma viral loads); format: in vivo, Syrian hamsters; parameters: Lung Infectious titers / Plasmatic viral RNA yields / Lung Viral RNA yields: unit not given here
[1] = Clinical course of the disease in infected hamsters (normalized weight, clinical signs); format: in vivo, Syrian hamsters; settings: Favipiravir IP 926mg/kg/day BID, inoculum 104 TCID50, sacrifice day 3, Figure 3, individual animals
Experimental: Three-week-old female Syrian hamsters were provided by Janvier Labs (SPF status). Animals were maintained in ISOcage P - Bioexclusion System (Techniplast) with unlimited access to water/food and 14h/10h light/dark cycle. A wooden gnawing block and extra bedding material was provided as cage enrichment. Animals were weighed and monitored daily for the duration of the study to detect the appearance of any clinical signs of illness/suffering. General anesthesia was obtained with isoflurane (Isoflurin®, Axience). Euthanasia, which was also realized under general anesthesia, was performed by cervical dislocation.
Groups of 6 hamsters were intranasally infected with 10^4 TCID50 of virus. a Experimental timeline. b, f, j Viral replication in lung based on infectious titers (measured using a TCID50 assay) expressed in TCID50/g of lung (n=6 animals/group). c, g, k Viral replication in lung based on viral RNA yields (measured using an RT-qPCR assay) expressed in viral genome copies/g of lung (n=6 animals/group). d, h, l Plasma viral loads (measured using an RT-qPCR assay) are expressed in viral genome copies/mL of plasma (the dotted line indicates the detection threshold of the assay) (n=6 animals/group). e, i, m Clinical course of the disease (n=6 animals/group). Normalized weight at day n was calculated as follows: % of initial weight of the animal at day n. Data represent mean ± SD (Details in Supplementary Data 2).

[2] = FVP 926mg/kg/day BID intraperitoneally, 3 dpi
[3] = Favipiravir IP 926mg/kg/day BID, inoculum 104 TCID50, sacrifice day 3, Figure 3, individual animals, 926 mg/kg/day

SMILES: NC(=O)c1nc(F)c[nH]c1=O [FVP, favipiravir]
- infectious titers in clarified lung homogenates vs untreated animals (SARS-CoV-2; [2]): significant reductions
- viral RNA yields in clarified lung homogenates vs untreated animals (SARS-CoV-2; [2]): significant reductions
- Lung Infectious titers (SARS-CoV-2; [3]): 6.755 and 6.354 and 7.035 and 6.515 and 6.109 and 6.625
- Lung Viral RNA yields (SARS-CoV-2; [3]): 6.542 and 6.443 and 6.907 and 6.536 and 6.197 and 6.702
- Plasmatic viral RNA yields (SARS-CoV-2; Favipiravir IP 926mg/kg/day BID, inoculum 104 TCID50, sacrifice day 3, Figure 3, individual animals, ¤ : Detection threshold at 1000 cp/ml, 926 mg/kg/day): 3.034 and 2.169 and 2.511 and 5.618
- Normalized weights Day 0 [1]: 100
- Normalized weights Day 1 ([1]; 926 mg/kg/day): 104.7 and 102.8 and 102.5 and 104.5 and 103.7 and 104.9
- Normalized weights Day 2 ([1]; 926 mg/kg/day): 101.3 and 102.5 and 100.8 and 100.6 and 94.2 and 104.4
- Normalized weights Day 3 ([1]; 926 mg/kg/day): 97.1 and 105.0 and 92.2 and 91.0 and 105.5 and 105.7
